According to US20250134855A1, “CO[…] AND METHODS OF USING SAME” (LYKOS THERAPEUTICS, INC., priority 2022, published 2025):
Where two headings read alike, the source gives them in different places.

Assay: Study MPKF: plasma pharmacokinetics of MDMA and MDA, single 120 mg MDMA·HCl, fasted/fed
Format: in vivo, human
Settings: for Tmax: median
Text: The MPKF was a Phase 1, open-label, randomized sequence, multi-dose, 2-period crossover food effect study in 16 healthy individuals. The MPKF study evaluated plasma concentrations of both MDMA and the active metabolite 3,4-methylenedioxyamphetamine (MDA). Summary PK Parameters of the preliminary data was based on interim analysis are presented in Table 12 Table 12 Table 12, and Table 13 Table 13 Table 13 for MDMA and MDA, respectively.
Participants were randomized to receive 1 of 2 conditions before the other: • Fasted Treatment: at least 10 hours of fasting followed by administration of MDMA HCl with 240 mL water. • Fed Treatment: at least 10 hours of fasting followed by a high-fat (approximately 50% of total caloric content of the meal) and high-calorie (approximately 800 to 1000 calories) meal was consumed within 30 minutes prior to IMP administration.
Participants remained at the clinical research unit (CRU) for each Dosing Session from the time of check-in on the night before dosing until discharge 48 hours after dosing for collection of serial blood samples for PK analysis and safety monitoring. IMP was administered on Day 1 following the treatment sequence to which the participant was randomized. An additional outpatient visit occurred 72 hours after dosing to collect a final PK sample, commensurate with the expected PK profiles of MDMA and MDA. Safety assessments were also performed at this visit.
The washout period between Dosing Sessions was at least 14 days. If a participant experienced emesis within 4 hours of administration, they were to be withdrawn from the study and replaced with a new participant. An End of Study Visit was performed 2 to 10 days after the completion of the final Dosing Session 72-hour follow-up. An informal interim analysis was planned to be conducted after at least 5 participants completed at least 1 Dosing Session to examine PK variability.
The API was a white crystalline powder of pharmaceutical quality, made according to current Good Manufacturing Practices (cGMP) for human use.
Participants: Sixteen healthy individuals were recruited for the study.
Intervention: The study was conducted as a Phase 1, open-label, randomized sequence, multi-dose, 2-period crossover food effect study. Each participant received multiple doses of MDMA, and plasma concentrations of both MDMA and the active metabolite MDA were measured.
Sample Collection: Blood samples were collected at various time points up to 72 hours after dosing. The samples were analyzed using validated liquid chromatography-tandem mass spectrometry (LC-MS/MS) methods.
Data Analysis: The summary PK parameters were presented in Table 12 for MDMA and Table 13 for MDA. The data were analyzed using descriptive statistics, and the mean and standard deviation were calculated. The results were compared between the two periods and analyzed for food effects. Statistical analyses were performed using appropriate methods, such as analysis of variance (ANOVA) and paired t-tests. A p-value of less than 0.05 was considered statistically significant.

[1] = Fasted (N = 15), 120 mg MDMA·HCl, geometric mean
[2] = Fed (N = 14), 120 mg MDMA·HCl, geometric mean

CC(N)Cc1ccc2c(c1)OCO2 (centres unmarked) [MDA, 3,4-methylenedioxyamphetamine]
higher plasma PK values in intermediate relative to normal CYP2D6 metabolizers (8 intermediate, 8 normal metabolizers): approximately 13%
Cmax, Geometric LSM (Fasted): 12.39 ng/mL
CL/F [1]: 302.8 L/h
Cmax [1]: 12 ng/mL
Tlag [1]: 0.6 h
Tmax (Fasted (N = 15), 120 mg MDMA·HCl): 6 h
Cmax, Geometric LSM (Fed): 11.92 ng/mL
CL/F [2]: 270.7 L/h
Cmax [2]: 12 ng/mL
Tlag [2]: 0.7 h
Tmax (Fed (N = 14), 120 mg MDMA·HCl): 7 h
Cmax (both sexes, human, plasma, po, single 120 mg dose of MDMA·HCl, fasting healthy males and females, read-out: Cmax): 13.3 ng/mL
AUC0-72, Geometric Mean Ratio (fed vs fasted): 0.98
AUC0-inf, Geometric Mean Ratio (fed vs fasted): 0.99
AUC0-t, Geometric Mean Ratio (fed vs fasted): 0.90
Cmax, Geometric Mean Ratio (fed vs fasted): 0.96
effect of food on exposure (high-fat meal vs fasting, single 120 mg MDMA·HCl): not affected by food
AUC0-inf of MDA relative to MDMA (human, plasma, oral, 120 mg): less than 10%
peak plasma levels of MDA relative to MDMA (human, plasma, oral, 120 mg): less than 10%
AUC(0-t) (human, plasma, oral, 120 mg, Fasted, read-out: AUC0-72, Geometric LSM): 312 ng·h/mL
AUC(0-inf) (human, plasma, oral, 120 mg, Fasted, read-out: AUC0-inf, Geometric LSM): 331 ng·h/mL
AUC(0-t) (human, plasma, oral, 120 mg, Fasted, read-out: AUC0-t, Geometric LSM): 282 ng·h/mL
AUC(0-t) (human, plasma, oral, 120 mg, Fed, read-out: AUC0-72, Geometric LSM): 306 ng·h/mL
AUC(0-inf) (human, plasma, oral, 120 mg, Fed, read-out: AUC0-inf, Geometric LSM): 328 ng·h/mL
AUC(0-t) (human, plasma, oral, 120 mg, Fed, read-out: AUC0-t, Geometric LSM): 254 ng·h/mL
Vd/F (human, plasma, po, 120 mg, Fasted (N = 15), 120 mg MDMA·HCl, geometric mean): 5520 L
AUC(0-t) (human, plasma, po, 120 mg, Fasted (N = 15), 120 mg MDMA·HCl, geometric mean, read-out: AUC0-72): 313 ng·h/mL
AUC(0-inf) (human, plasma, po, 120 mg, Fasted (N = 15), 120 mg MDMA·HCl, geometric mean, read-out: AUC0-inf): 330 ng·h/mL
AUC(0-t) (human, plasma, po, 120 mg, Fasted (N = 15), 120 mg MDMA·HCl, geometric mean, read-out: AUC0-t): 282 ng·h/mL
half-life (human, plasma, po, 120 mg, Fasted (N = 15), 120 mg MDMA·HCl, geometric mean, read-out: T1/2 (converted)): 12.6 h
Vd/F (human, plasma, po, 120 mg, Fed (N = 14), 120 mg MDMA·HCl, geometric mean): 5000 L
AUC(0-t) (human, plasma, po, 120 mg, Fed (N = 14), 120 mg MDMA·HCl, geometric mean, read-out: AUC0-72): 322 ng·h/mL
AUC(0-inf) (human, plasma, po, 120 mg, Fed (N = 14), 120 mg MDMA·HCl, geometric mean, read-out: AUC0-inf): 369 ng·h/mL
AUC(0-t) (human, plasma, po, 120 mg, Fed (N = 14), 120 mg MDMA·HCl, geometric mean, read-out: AUC0-t): 255 ng·h/mL
half-life (human, plasma, po, 120 mg, Fed (N = 14), 120 mg MDMA·HCl, geometric mean, read-out: T1/2 (converted)): 12.8 h
AUC(0-inf) (human, plasma, po, 120 mg, single 120 mg dose of MDMA·HCl, fasting, read-out: AUC0-inf): 374 ng·h/mL
half-life (human, plasma, po, 120 mg, single 120 mg dose of MDMA·HCl, fasting, read-out: t1/2 (converted)): 12.8 h
Tmax (single 120 mg dose of MDMA·HCl, fasting): 6 h
